We go through 45 molecules from patent publication US12522607B2, “Substituted pyrazolo[3,4-d]pyrimidines as wee-1 inhibitors” (WIGEN BIOMEDICINE TECHNOLOGY (SHANGHAI) CO., LTD., priority 2020, dated 2026).

The target in one test is T1, Wee-1 kinase (Homo sapiens, UniProt P30291).
T1 construct: purchased Invitrogen
Kind of test: Inhibitory activity against Wee-1 kinase (Lanthra Screen Wee-1 kinase kit, Tracer 178). The test is classed as binding. As to conditions: Wee-1 kinase 5 nM, Tracer 178 50 nM, 1 h room temperature. How it is done: Example 342. Assay for Inhibitory Activity of Compounds Against Wee-1 Kinase
The inhibitory activity of compounds against Wee-1 kinase was determined by using the Lanthra Screen Wee-1 kinase kit (Invitrogen). 5 μL of the compound diluted in a gradient with DMSO, 5 μL. of Wee-1 kinase (at a final concentration of 5 nM), 5 μL of an Eu-Anti-GST antibody (at a final concentration of 2 nM) mixture and 5 μL of kinase Tracer 178 (at a final concentration of 50 nM) were mixed well. The plate was read after incubation at room temperature for one hour. For comparison with the DMSO solvent control group, IC50 for the inhibition activity of the compounds against Wee-1 kinase was calculated.

The test system of the next test is HT29 cells. Kind of test: Antiproliferative activity against HT29 cells (Cell Titer-Lumi, ATP content). The class given is cell-based. The note with it: Homo sapiens, HT-29, 72 after compound addition, read-out: HT-29 cells Anti-proliferative activity (IC50 for the inhibition against HT-29 cell growth). How it is done:
Example 343. Assay for Antiproliferative Activity Against HT29 Cells
3000 HT29 cells were seed in a 384-well plate (Fisher 142762). After the cells adhered to the wall overnight, the compounds diluted in a gradient were added. 72 later, Cell Titer-Lumi (Beyotime C0068XL) was added to determine the content of ATP in the cells. The growth of the cells was evaluated, and the IC50 for the inhibition of the compounds against cell growth was calculated.

T1 sequence (P30291 whole entry): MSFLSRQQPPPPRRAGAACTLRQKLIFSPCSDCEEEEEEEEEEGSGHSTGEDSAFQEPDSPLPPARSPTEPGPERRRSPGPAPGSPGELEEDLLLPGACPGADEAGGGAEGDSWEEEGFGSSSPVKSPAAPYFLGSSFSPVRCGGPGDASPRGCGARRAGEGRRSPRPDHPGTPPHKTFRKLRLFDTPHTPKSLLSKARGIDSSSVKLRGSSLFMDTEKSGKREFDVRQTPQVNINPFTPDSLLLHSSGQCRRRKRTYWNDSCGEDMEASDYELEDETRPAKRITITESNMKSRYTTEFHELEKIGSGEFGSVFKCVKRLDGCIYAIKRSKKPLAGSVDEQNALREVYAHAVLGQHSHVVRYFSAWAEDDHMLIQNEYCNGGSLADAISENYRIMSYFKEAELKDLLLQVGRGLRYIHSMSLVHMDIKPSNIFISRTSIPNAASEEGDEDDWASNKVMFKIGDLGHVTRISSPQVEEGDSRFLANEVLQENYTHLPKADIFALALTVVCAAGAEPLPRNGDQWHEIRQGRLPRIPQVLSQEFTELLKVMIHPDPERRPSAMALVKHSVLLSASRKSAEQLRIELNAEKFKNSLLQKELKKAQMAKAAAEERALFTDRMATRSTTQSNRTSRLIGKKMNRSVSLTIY

As a reminder, the IC50 is the concentration at which inhibition is half-maximal. Turning to `C=CCn1c(=O)c2cnc(Nc3ccc(N4CCN(C5CCN(C)CC5)CC4)c(C)c3)nc2n1-c1ccc(=O)n(C(C)C)n1` [Compound 139], the 50% inhibitory concentration (IC50) on Wee-1 kinase was at most 30 nM; in the test with HT29 cells, at most 1000 nM.
On to `C=CCn1c(=O)c2cnc(Nc3ccc4c(c3)C(C)(C)CNC4)nc2n1-c1ccc(=O)n(C(C)C)n1` [Compound 243], for which the IC50 at Wee-1 kinase was at most 30 nM; with HT29 cells it was at most 1000 nM.
For `C=CCn1c(=O)c2cnc(Nc3ccc(N4CCC(N5CCCC5)CC4)c(OC)c3)nc2n1-c1ccc(=O)n(C(C)C)n1` [Compound 91], in that order: at most 30 nM and at most 1000 nM.
On to `C=CCn1c(=O)c2cnc(Nc3ccc(N4CCC(N5CCN(C)CC5)CC4)c(OC)c3)nc2n1-c1ccc(=O)n(C(C)C)n1` [Compound 144], for which the IC50 against Wee-1 kinase is at most 30 nM; with HT29 cells it was at most 1000 nM.
Take `C=CCn1c(=O)c2cnc(Nc3ccc(N4CCN(C)CC4)cc3)nc2n1-c1ccc(=O)n(C2CCCC2)n1` [Compound 13]: the IC50 was at most 30 nM against Wee-1 kinase and at most 1000 nM in the test with HT29 cells.
Consider `Cc1cc(Nc2ncc3c(=O)n(C(C)C)n(-c4ccc(=O)n(C(C)(C)C)c4)c3n2)ccc1C1CCN(C)CC1` [Compound 336], for which the IC50 at Wee-1 kinase was at most 30 nM; in the test on HT29 cells, at most 1000 nM.
On to `C=CCn1c(=O)c2cnc(Nc3ccc(N4CCC5(CNC5)C4)c(C)c3)nc2n1-c1ccc(=O)n(C(C)C)n1` [Compound 170], for which the figures for the IC50 against Wee-1 kinase and in the test with HT29 cells were at most 30 nM and at most 1000 nM, respectively.
Turning to `C=CCn1c(=O)c2cnc(Nc3ccc(N4CCN(C)CC4)c(C)c3)nc2n1-c1ccc(=O)n(C(C)(C)C)c1` [Compound 327], the IC50 against Wee-1 kinase was at most 30 nM; in the test on HT29 cells it was at most 1000 nM.
For `C=CCn1c(=O)c2cnc(Nc3ccc(C4(C)CCCN(C)C4)cc3)nc2n1-c1ccc(=O)n(C(C)C)n1` (stereo not drawn) [Compound 203], in that order: at most 30 nM and at most 1000 nM.
In the case of `C=CCn1c(=O)c2cnc(Nc3ccc(N4CC5(CCNC5)C4)c(C)c3)nc2n1-c1ccc(=O)n(C(C)C)n1` [Compound 161], the IC50 on Wee-1 kinase is at most 30 nM; in the test on HT29 cells, 1000 to 3000 nM.
For `CC(C)n1c(=O)c2cnc(Nc3ccc(N4CCN(C)CC4)cc3)nc2n1-c1ccc(=O)n(C(C)(C)C)n1` [Compound 288] the same measures were at most 30 nM and at most 1000 nM.
On to `C=CCn1c(=O)c2cnc(Nc3ccc(N4CCN(C)[C@@H](C)C4)cc3)nc2n1-c1ccc(=O)n(C(C)C)n1` [Compound 129], for which the IC50 was at most 30 nM on Wee-1 kinase and at most 1000 nM in the test on HT29 cells.
On to `C=CCn1c(=O)c2cnc(Nc3cc(N4CCN(C(C)C)CC4)c4ccn(C5CC5)c4c3)nc2n1-c1ccc(=O)n(C(C)C)n1` [Compound 259], for which the IC50 is at most 30 nM against Wee-1 kinase and at most 1000 nM in the test on HT29 cells.
As for `C=CCn1c(=O)c2cnc(Nc3cc(Cl)c(N4CCNCC4)c(Cl)c3)nc2n1-c1ccc(=O)n(C(C)C)n1` [Compound 61], the IC50 was at most 30 nM against Wee-1 kinase and at most 1000 nM in the test on HT29 cells.
For `C=CCn1c(=O)c2cnc(Nc3ccc4c(c3)CN(C)CC43CC3)nc2n1-c1ccc(=O)n(C(C)(C)C)n1` [Compound 283], the IC50 is at most 30 nM at Wee-1 kinase and at most 1000 nM in the test on HT29 cells.
For `C=CCn1c(=O)c2cnc(Nc3ccc(N4CCC(N5CCOCC5)CC4)c(C)c3)nc2n1-c1ccc(=O)n(C(C)C)n1` [Compound 149], the values for the IC50 at Wee-1 kinase and in the test on HT29 cells were at most 30 nM and at most 1000 nM, respectively.
In the case of `Cc1cc(Nc2ncc3c(=O)n(C4CC4)n(-c4ccc(=O)n(C(C)C)n4)c3n2)ccc1N1CCN(C)CC1` [Compound 272], the half-maximal inhibitory concentration (IC50) was at most 30 nM at Wee-1 kinase and at most 1000 nM in the test on HT29 cells.
As for `C=CCn1c(=O)c2cnc(Nc3ccc(N4CC(N5CCCC5)C4)c(C)c3)nc2n1-c1ccc(=O)n(C(C)C)n1` [Compound 84], the IC50 was at most 30 nM against Wee-1 kinase and at most 1000 nM in the test with HT29 cells.
As for `Cc1cc(Nc2ncc3c(=O)n(C(C)C)n(-c4ccc(=O)n(C(C)C)c4)c3n2)ccc1C1CCN(C)CC1` [Compound 305], the IC50 against Wee-1 kinase is at most 30 nM; with HT29 cells, at most 1000 nM.
Consider `C=CCn1c(=O)c2cnc(Nc3ccc(N4CCN(C)CC4)cc3)nc2n1-c1ccc(=O)n(C2CC(F)(F)C2)n1` [Compound 15], for which the values for the IC50 against Wee-1 kinase and in the test on HT29 cells were 30 to 100 nM and 1000 to 3000 nM, respectively.
In the case of `C=CCn1c(=O)c2cnc(Nc3ccc4c(c3)CN(C)CC43CC3)nc2n1-c1cc(F)c(=O)n(C(C)C)c1` [Compound 314], the IC50 was at most 30 nM on Wee-1 kinase and at most 1000 nM with HT29 cells.
As to `C=CCn1c(=O)c2cnc(Nc3ccc(N4C[C@H](C)NC[C@H]4C)c(C)c3)nc2n1-c1ccc(=O)n(C(C)C)n1` [Compound 126], the results for the IC50 at Wee-1 kinase and in the test with HT29 cells were at most 30 nM and at most 1000 nM, respectively.
`C=CCn1c(=O)c2cnc(Nc3ccc4c(c3)CN(C)C4(C)C)nc2n1-c1ccc(=O)n(C(C)C)n1` [Compound 224]: the IC50 against Wee-1 kinase was at most 30 nM; in the test with HT29 cells it was at most 1000 nM.
Consider `C=CCn1c(=O)c2cnc(Nc3ccc(N4CCN(C)CC4)cn3)nc2n1-c1ccc(=O)n(C(C)C)n1` [Compound 248], for which the IC50 against Wee-1 kinase was at most 30 nM; in the test with HT29 cells, at most 1000 nM.
On to `C=CCn1c(=O)c2cnc(Nc3ccc(N4CCN(C)CC4)cc3)nc2n1-c1ccc(=O)n(CC(F)F)n1` [Compound 7], for which the IC50 against Wee-1 kinase lay within 30 to 100 nM; in the test with HT29 cells it was 1000 to 3000 nM.
In the case of `C=CCn1c(=O)c2cnc(Nc3ccc(N4CCC(N5CCC5)CC4)cc3)nc2n1-c1ccc(=O)n(C(C)C)n1` [Compound 86], the IC50 against Wee-1 kinase was at most 30 nM; in the test on HT29 cells it was at most 1000 nM.
With `C=CCn1c(=O)c2cnc(Nc3ccc(N4CC(N5CCC5)C4)c(OC)c3)nc2n1-c1ccc(=O)n(C(C)C)n1` [Compound 82], the values for the 50% inhibitory concentration (IC50) at Wee-1 kinase and in the test with HT29 cells were at most 30 nM and at most 1000 nM, respectively.
Take `Cc1cc(Nc2ncc3c(=O)n(C4CC4)n(-c4ccc(=O)n(C(C)C)c4)c3n2)ccc1N1CCN(C)CC1` [Compound 308]: the IC50 against Wee-1 kinase was at most 30 nM; in the test with HT29 cells, at most 1000 nM.
For `C=CCn1c(=O)c2cnc(Nc3ccc(N4CCN(C5CCC5)CC4)cc3)nc2n1-c1ccc(=O)n(C(C)C)n1` [Compound 34], in that order: at most 30 nM and at most 1000 nM.
With `C=CCn1c(=O)c2cnc(Nc3ccc(N4C[C@H](C)N(C)C[C@H]4C)cc3)nc2n1-c1ccc(=O)n(C(C)C)n1` [Compound 125], the IC50 is at most 30 nM on Wee-1 kinase and at most 1000 nM with HT29 cells.
For `C=CCn1c(=O)c2cnc(Nc3ccc(N4C[C@@H](C)N(C)[C@@H](C)C4)cc3)nc2n1-c1ccc(=O)n(C(C)C)n1` [Compound 117], the figures for the IC50 against Wee-1 kinase and in the test with HT29 cells were at most 30 nM and at most 1000 nM, respectively.
On to `C=CCn1c(=O)c2cnc(Nc3ccc4c(c3)CNCC4(C)C)nc2n1-c1ccc(=O)n(C(C)C)n1` [Compound 237], for which the results for the IC50 on Wee-1 kinase and in the test on HT29 cells were at most 30 nM and at most 1000 nM, respectively.
For the molecule `C=CCn1c(=O)c2cnc(Nc3ccc(N4CCN(C)CC4)cc3)nc2n1-c1cn(C(C)C)c(=O)cc1OC` [Compound 30], the IC50 on Wee-1 kinase was 30 to 100 nM; in the test on HT29 cells, above 3000 nM.
With `C=CCn1c(=O)c2cnc(Nc3ccc(N4CC5(CCCN5C)C4)c(C)c3)nc2n1-c1ccc(=O)n(C(C)C)n1` [Compound 188], the IC50 against Wee-1 kinase was at most 30 nM; in the test with HT29 cells, at most 1000 nM.
Turning to `C=CCn1c(=O)c2cnc(Nc3ccc(C4CCNCC4)c(OC)c3)nc2n1-c1ccc(=O)n(C(C)C)n1` [Compound 194], the half-inhibitory concentration (IC50) at Wee-1 kinase is at most 30 nM; with HT29 cells, at most 1000 nM.
Take `C=CCn1c(=O)c2cnc(Nc3ccc4c(ccn4C4CCN(C(C)C)CC4)c3)nc2n1-c1ccc(=O)n(C(C)C)n1` [Compound 271]: the IC50 on Wee-1 kinase is at most 30 nM; in the test on HT29 cells, at most 1000 nM.
For `CCn1c(=O)c2cnc(Nc3ccc(C4CCN(C)CC4)c(C)c3)nc2n1-c1ccc(=O)n(C(C)C)c1` [Compound 301] the same measures were at most 30 nM and at most 1000 nM.
Regarding `CC(C)n1nc(-n2c3nc(Nc4ccc5c(c4)CN(C)CC54CC4)ncc3c(=O)n2C2CC2)ccc1=O` [Compound 274], the IC50 is at most 30 nM against Wee-1 kinase and at most 1000 nM in the test on HT29 cells.
Turning to `C=CCn1c(=O)c2cnc(Nc3ccc(N4CCN(C)CC4)cc3)nc2n1-c1ccc(=O)n(C(C)C)c1` [Compound 20], the IC50 is at most 30 nM against Wee-1 kinase and at most 1000 nM with HT29 cells.
Regarding `C=CCn1c(=O)c2cnc(Nc3ccc4cc(N5CCN(C)CC5)ccc4c3)nc2n1-c1ccc(=O)n(C(C)C)n1` [Compound 218], the concentration for half-maximal inhibition (IC50) against Wee-1 kinase is at most 30 nM; in the test with HT29 cells, at most 1000 nM.
For `C=CCn1c(=O)c2cnc(Nc3ccc(N4CCC(N5CCN(C)CC5)CC4)cc3)nc2n1-c1ccc(=O)n(C(C)C)n1` [Compound 142] the same measures were at most 30 nM and at most 1000 nM.
As to `C=CCn1c(=O)c2cnc(Nc3ccc(N4CC5CCC(C4)N5)c(C)c3)nc2n1-c1ccc(=O)n(C(C)C)n1` [Compound 137], the IC50 against Wee-1 kinase was at most 30 nM; in the test on HT29 cells, 1000 to 3000 nM.
As to `C=CCn1c(=O)c2cnc(Nc3ccc4c(c3)CNCC43CC3)nc2n1-c1ccc(=O)n(C(C)C)n1` [Compound 231], the IC50 against Wee-1 kinase is at most 30 nM; in the test with HT29 cells it was at most 1000 nM.
For `C=CCn1c(=O)c2cnc(Nc3ccc(C4(C)CCCNC4)cc3)nc2n1-c1ccc(=O)n(C(C)C)n1` (stereo not drawn) [Compound 202], in that order: at most 30 nM and at most 1000 nM.
As to `CN1CCN(c2ccc(Nc3ncc4c(=O)n(C5CC5)n(-c5ccc(=O)n(C(C)(C)C)n5)c4n3)cc2)CC1` [Compound 292], the results for the IC50 against Wee-1 kinase and in the test on HT29 cells were at most 30 nM and at most 1000 nM, respectively.
